Read-outs that look alike come from different tables or passages of the source. Where only a bound is given, the exact number is not on record here.

The assay has as its target T1, F508delCFTR (Homo sapiens, UniProt P13569, DEL508-508).
T1 construct: expressed in transfected cells; host or cells: CFBE41o- human lung-derived epithelial cells (CFBE4lo-F508delCFTR-HRP), doxycycline-inducible
Briefly: Cell Surface Expression-Horse Radish Peroxidase (CSE-HRP) Assay.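 On Maximum % activity (with co-corrector): co-corrector and positive control are both the same reference corrector at 2 µM.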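 On Maximum % activity (without co-corrector): percent of the 2 µM on-plate positive control corrector response above DMSO.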 It counts as cell-based. The settings on record: for Maximum % activity (with co-corrector) / Emax: maximum at any tested concentration, normalized to on-plate positive control; for Emax: read-out: Maximum % activity (without co-corrector).

[1] abbreviates: test compound without co-corrector, read-out: EC50 (without co-corrector).
[2] abbreviates: with co-corrector (2 μM of 3-[(2R,4R)-4-({[1-(2,2-difluoro-1,3-benzodioxol-5-yl)cyclopropyl]carbonyl}amino)-7-methoxy-3,4-dihydro-2H-chromen-2-yl]benzoic acid), read-out: EC50 (with co-corrector).
Setting [3] is: CSE-HRP, test compound without co-corrector, read-out: EC50 (without co-corrector).
[4] abbreviates: CSE-HRP, with co-corrector (2 μM of 3-[(2R,4R)-4-({[1-(2,2-difluoro-1,3-benzodioxol-5-yl)cyclopropyl]carbonyl}amino)-7-methoxy-3,4-dihydro-2H-chromen-2-yl]benzoic acid), read-out: EC50 (with co-corrector).
Where [5] appears, read: CSE-HRP, with co-corrector (2 μM).
[6] abbreviates: test compound without co-corrector.
[7] abbreviates: with co-corrector (2 μM of 3-[(2R,4R)-4-({[1-(2,2-difluoro-1,3-benzodioxol-5-yl)cyclopropyl]carbonyl}amino)-7-methoxy-3,4-dihydro-2H-chromen-2-yl]benzoic acid).

T1 sequence (P13569 with tags, fused parts or gaps DEL508-508): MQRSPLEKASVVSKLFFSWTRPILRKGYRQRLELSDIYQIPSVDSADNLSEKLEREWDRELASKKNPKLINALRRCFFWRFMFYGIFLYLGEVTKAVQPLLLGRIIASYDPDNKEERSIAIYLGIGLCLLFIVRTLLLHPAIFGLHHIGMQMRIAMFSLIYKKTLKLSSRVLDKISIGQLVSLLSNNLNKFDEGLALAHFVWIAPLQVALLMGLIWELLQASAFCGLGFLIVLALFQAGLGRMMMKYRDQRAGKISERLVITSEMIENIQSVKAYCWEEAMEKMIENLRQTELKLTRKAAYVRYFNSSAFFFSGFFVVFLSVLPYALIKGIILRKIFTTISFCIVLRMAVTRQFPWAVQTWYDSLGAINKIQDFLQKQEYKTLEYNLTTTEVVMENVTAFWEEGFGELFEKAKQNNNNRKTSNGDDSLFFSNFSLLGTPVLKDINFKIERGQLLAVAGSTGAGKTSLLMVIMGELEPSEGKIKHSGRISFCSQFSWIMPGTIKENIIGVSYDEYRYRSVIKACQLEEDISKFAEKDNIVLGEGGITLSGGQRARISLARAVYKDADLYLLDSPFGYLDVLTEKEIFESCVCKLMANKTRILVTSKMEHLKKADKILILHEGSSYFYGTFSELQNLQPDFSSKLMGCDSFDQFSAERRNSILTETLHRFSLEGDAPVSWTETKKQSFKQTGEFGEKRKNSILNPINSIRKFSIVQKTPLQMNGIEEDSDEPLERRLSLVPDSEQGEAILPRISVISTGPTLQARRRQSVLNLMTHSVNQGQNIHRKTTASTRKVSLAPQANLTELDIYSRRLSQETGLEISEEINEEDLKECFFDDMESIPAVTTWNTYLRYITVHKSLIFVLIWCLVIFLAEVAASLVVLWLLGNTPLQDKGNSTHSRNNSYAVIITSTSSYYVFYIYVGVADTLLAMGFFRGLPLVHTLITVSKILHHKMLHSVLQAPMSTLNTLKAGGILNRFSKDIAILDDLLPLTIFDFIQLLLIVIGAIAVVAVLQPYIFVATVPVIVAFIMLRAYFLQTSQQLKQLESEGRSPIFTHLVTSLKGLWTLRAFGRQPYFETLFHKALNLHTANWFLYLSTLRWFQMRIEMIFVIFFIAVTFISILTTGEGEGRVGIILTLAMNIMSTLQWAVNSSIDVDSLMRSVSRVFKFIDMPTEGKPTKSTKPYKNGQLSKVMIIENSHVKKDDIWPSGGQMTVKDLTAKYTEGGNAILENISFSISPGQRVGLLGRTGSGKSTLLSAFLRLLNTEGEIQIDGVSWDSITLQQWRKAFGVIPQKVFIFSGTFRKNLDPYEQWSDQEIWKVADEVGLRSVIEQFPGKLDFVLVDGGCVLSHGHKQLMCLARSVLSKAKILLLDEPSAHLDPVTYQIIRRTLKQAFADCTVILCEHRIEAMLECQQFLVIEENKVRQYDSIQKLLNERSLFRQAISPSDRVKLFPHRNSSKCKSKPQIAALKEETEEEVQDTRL

On to `COc1nc(C(C)(C)C)ccc1CN[C@H]1[C@H](C(C)(C)C)[C@@H](C(=O)O)N(C(=O)[C@@H]2CCC[C@H](OC)C2)[C@H]1c1ccccc1` (relative stereo) [Example I-198], for which the EC50 runs as follows: under setting [1], 1 to 10 µM; under setting [2], 1 to 10 µM. Also, the “Maximum % activity (with co-corrector)” value (with co-corrector (2 μM)) is on record as “+++ (≥350)”. Moreover, the Emax (without co-corrector) is less than 100%.
`COc1ccc(C(C)(C)C)cc1CN[C@H]1[C@H](C(C)(C)C)[C@@H](C(=O)O)N(C(=O)[C@@H]2[C@@H](C(F)(F)F)[C@@H]3CC[C@H]2O3)[C@H]1c1cccnc1N(C)C` (relative stereo) [Example I-204]: the EC50 by setting is: under setting [1], less than 1 µM; under setting [2], less than 1 µM. The “Maximum % activity (with co-corrector)” value (with co-corrector (2 μM)) is listed as “+++ (≥350)”. Also, where the note is “without co-corrector”, the Emax was greater than 200%.
`COc1ncc(C2CCC2)cc1CN[C@H]1[C@H](C(C)(C)C)[C@@H](C(=O)O)N(C(=O)C2COc3ccccc3O2)[C@H]1c1ccccc1` (relative stereo) [Example I-205]: the EC50 runs as follows: under setting [1], 1 to 10 µM; under setting [2], 1 to 10 µM. Further, the “Maximum % activity (with co-corrector)” value (with co-corrector (2 μM)) is “++ (≥150 and <350)”. Further, the Emax (without co-corrector) was less than 100%.
Consider `COc1ccc(C(C)(C)C)cc1CN[C@H]1[C@H](C(C)(C)C)[C@@H](C(=O)O)N(C(=O)[C@H]2[C@H](C(F)(F)F)[C@H]3CC[C@@H]2O3)[C@H]1c1ccccc1OC(F)F` (relative stereo) [Example I-223], for which the EC50 runs as follows: under setting [1], 1 to 10 µM; under setting [2], less than 1 µM. Besides, the “Maximum % activity (with co-corrector)” value (with co-corrector (2 μM)) was “+++ (≥350)”. The Emax (without co-corrector) lay in the range of 100 to 200%.
The corresponding values for `COc1ccc(C(C)(C)C)cc1CN[C@H]1[C@H](C(C)(C)C)[C@@H](C(=O)O)N(C(=O)[C@@H]2C[C@H]3CC[C@@H]2O3)[C@H]1c1ccccc1` (relative stereo) [Example I-241] are 1 to 10 µM, 1 to 10 µM, “+++ (≥350)” and greater than 200%.
As to `COc1ccc(C(F)(F)F)cc1CN[C@H]1[C@H](C(C)(C)C)[C@@H](C(=O)O)N(C(=O)C2CCCC(F)(F)C2)[C@H]1c1cccnc1OC` (relative stereo) [Example I-256], the EC50 by setting is: under setting [3], 1 to 10 µM; under setting [4], less than 1 µM. The “Maximum % activity (with co-corrector)” value under setting [5] is listed as “+++ (≥350)”. For the same molecule, under “CSE-HRP, without co-corrector”, the Emax is greater than 200%.
On to `COc1cc(C(F)(F)F)ccc1CN[C@H]1[C@H](C(C)(C)C)[C@@H](C(=O)O)N(C(=O)C2CCCC(F)(F)C2)[C@H]1c1cccnc1OC` (relative stereo) [Example I-257], for which the EC50 is, setting by setting: under setting [3], 1 to 10 µM; under setting [4], less than 1 µM. Besides, the “Maximum % activity (with co-corrector)” value under setting [5] is recorded as “+++ (≥350)”. In addition, the Emax (CSE-HRP, without co-corrector) lay in the range of 100 to 200%.
For `COc1ncc(C2CCC2)cc1CN[C@H]1[C@H](C(C)(C)C)[C@@H](C(=O)O)N(C(=O)[C@@H]2CCC[C@H](C(F)(F)F)C2)[C@H]1c1ccccc1` (relative stereo) [Example I-259] the same measures were 1 to 10 µM, 1 to 10 µM, “+++ (≥350)” and 100 to 200%.
As for `COc1ncc(C2CCC2)cc1CN[C@H]1[C@H](C(C)(C)C)[C@@H](C(=O)O)N(C(=O)[C@H]2CCC[C@@H](C(F)(F)F)C2)[C@H]1c1ccccc1` (relative stereo) [Example I-260], the EC50 is, setting by setting: under setting [3], 1 to 10 µM; under setting [4], 1 to 10 µM. For the same molecule, under setting [5], the “Maximum % activity (with co-corrector)” value was “++ (≥150 and <350)”. Also, under “CSE-HRP, without co-corrector”, the Emax is less than 100%.
As for `COc1ncc(C(F)(F)F)cc1CN[C@H]1[C@H](C(C)(C)C)[C@@H](C(=O)O)N(C(=O)[C@H]2C[C@@H]3CC[C@H]2O3)[C@H]1c1ccccc1C(C)C` (relative stereo) [Example I-270], the EC50 by setting is: under setting [3], less than 1 µM; under setting [4], less than 1 µM. Besides, the “Maximum % activity (with co-corrector)” value under setting [5] is “+++ (≥350)”. Further, the Emax (CSE-HRP, without co-corrector) was greater than 200%.
In the case of `COc1cc(Cl)ccc1CN[C@H]1[C@H](C(C)(C)C)[C@@H](C(=O)O)N(C(=O)[C@H](OC)c2ccccc2)[C@H]1c1ccccc1` (relative stereo) [II-54], the EC50 lay in the range of 1 to 10 µM under setting [3] and 1 to 10 µM under setting [4]. The “Maximum % activity (with co-corrector)” value under setting [5] is reported as “+++ (≥350)”. Moreover, the Emax (CSE-HRP, without co-corrector) was greater than 200%.
Take `COc1cc(C(F)(F)F)ccc1CN[C@H]1[C@H](C(C)(C)C)[C@@H](C(=O)O)N(C(=O)C2CCCCO2)[C@H]1c1cccnc1OC` (relative stereo) [II-98]: the EC50 by setting is: under setting [3], 1 to 10 µM; under setting [4], 1 to 10 µM. The “Maximum % activity (with co-corrector)” value under setting [5] was “+++ (≥350)”. Moreover, the Emax (CSE-HRP, without co-corrector) was in the range of 100 to 200%.
In the case of `COc1ccc(C(C)(C)C)cc1CN[C@H]1[C@H](C(C)(C)C)[C@@H](C(=O)O)N(C(=O)[C@@H]2OCC[C@@H]2C)[C@H]1c1ccccc1` (relative stereo) [II-268], the EC50 by setting is: under setting [3], 1 to 10 µM; under setting [4], 1 to 10 µM. In addition, under setting [5], the “Maximum % activity (with co-corrector)” value is recorded as “+++ (≥350)”. For the setting “CSE-HRP, without co-corrector”, the Emax is greater than 200%.
`COc1ccc(C(C)(C)C)cc1CN[C@H]1[C@H](C(C)(C)C)[C@@H](C(=O)O)N(C(=O)[C@H]2OCC[C@H]2C)[C@H]1c1ccccc1` (relative stereo) [II-269]: the EC50 under setting [3] lay within 1 to 10 µM and the EC50 under setting [4] lay in the range of 1 to 10 µM. In addition, the “Maximum % activity (with co-corrector)” value under setting [5] is “+++ (≥350)”. Moreover, for the setting “CSE-HRP, without co-corrector”, the Emax is greater than 200%.
Regarding `COc1ccc(C(F)(F)F)cc1CN[C@H]1[C@H](C(C)(C)C)[C@@H](C(=O)O)N(C(=O)[C@@H]2OCC[C@@H]2C)[C@H]1c1ccccc1` (relative stereo) [II-274], the EC50 lay within 1 to 10 µM under setting [3] and 1 to 10 µM under setting [4]. For the same molecule, the “Maximum % activity (with co-corrector)” value under setting [5] is “+++ (≥350)”. The Emax (CSE-HRP, without co-corrector) was greater than 200%.
Turning to `COc1ccc(C(C)(C)C)cc1CN[C@H]1[C@H](C(C)(C)C)[C@@H](C(=O)O)N(C(=O)C(OC)C(C)(C)C)[C@H]1c1ccccc1` (relative stereo) [II-297], the half-maximal effective concentration (EC50) by setting is: under setting [3], 1 to 10 µM; under setting [4], 1 to 10 µM. Moreover, under setting [5], the “Maximum % activity (with co-corrector)” value was “+++ (≥350)”. In addition, for the setting “CSE-HRP, without co-corrector”, the Emax is less than 100%.
Consider `COc1ccc(C(C)(C)C)cc1CN[C@H]1[C@H](C(C)(C)C)[C@@H](C(=O)O)N(C(=O)[C@@H]2C[C@H]2c2ccccc2)[C@H]1c1ccccc1` (relative stereo) [II-339], for which the Emax under setting [6] is greater than 200%. In addition, the EC50 by setting is: under setting [1], 1 to 10 µM; under setting [2], less than 1 µM. Moreover, the “Maximum % activity (with co-corrector)” value under setting [7] is recorded as “+++ (≥350)”.
The corresponding values for `COc1ncc(C(F)(F)F)cc1CN[C@H]1[C@H](C(C)(C)C)[C@@H](C(=O)O)N(C(=O)[C@H]2CC[C@@H](c3ccccc3)O2)[C@H]1c1ccccc1` (relative stereo) [II-426] are less than 100%, 1 to 10 µM, less than 1 µM and “+++ (≥350)”.
On to `COc1nc(C(C)(C)C)ccc1CN[C@H]1[C@H](C(C)(C)C)[C@@H](C(=O)O)N(C(=O)[C@@H]2OC[C@@H]3CCC[C@@H]32)[C@H]1c1ccccc1` (relative stereo) [II-431], for which the Emax under setting [6] lay in the range of 100 to 200%. Besides, the EC50 is less than 1 µM under setting [1] and less than 1 µM under setting [2]. Further, the “Maximum % activity (with co-corrector)” value under setting [7] is listed as “+++ (≥350)”.
On to `COc1nc(C(C)(C)C)ccc1CN[C@H]1[C@H](C(C)(C)C)[C@@H](C(=O)O)N(C(=O)[C@H]2OC[C@H]3CCC[C@H]32)[C@H]1c1ccccc1` (relative stereo) [II-432], for which the Emax under setting [6] is less than 100%. The EC50 fell in the range of 1 to 10 µM under setting [1] and 1 to 10 µM under setting [2]. Further, under setting [7], the “Maximum % activity (with co-corrector)” value was “+++ (≥350)”.
In the case of `COc1ccc(C(C)(C)C)cc1CN[C@H]1[C@H](C(C)(C)C)[C@@H](C(=O)O)N(C(=O)[C@H]2CCC[C@H](OC)C2)[C@H]1c1cccnc1N(C)C` (relative stereo) [II-448], the Emax under setting [6] is greater than 200%. Also, the EC50 fell in the range of 1 to 10 µM under setting [1] and 1 to 10 µM under setting [2]. Besides, under setting [7], the “Maximum % activity (with co-corrector)” value is reported as “+++ (≥350)”.
With `COc1ccc(C(C)(C)C)cc1CN[C@H]1[C@H](C(C)(C)C)[C@@H](C(=O)O)N(C(=O)[C@@H]2CCC[C@@H](OC)C2)[C@H]1c1cccnc1N(C)C` (relative stereo) [II-449], the Emax under setting [6] is greater than 200%. In addition, the EC50 by setting is: under setting [1], 1 to 10 µM; under setting [2], less than 1 µM. For the same molecule, under setting [7], the “Maximum % activity (with co-corrector)” value is reported as “+++ (≥350)”.
For `COc1ccc(C(C)(C)C)cc1CN[C@H]1[C@H](C(C)(C)C)[C@@H](C(=O)O)N(C(=O)[C@H](C)[C@@H]2CCCCO2)[C@H]1c1ccccc1` (relative stereo) [II-454] the same measures were 100 to 200%, 1 to 10 µM, 1 to 10 µM and “+++ (≥350)”.
For `COc1ccc(C(C)(C)C)cc1CN[C@H]1[C@H](C(C)(C)C)[C@@H](C(=O)O)N(C(=O)[C@@H](C)[C@H]2CCCCO2)[C@H]1c1ccccc1` (relative stereo) [II-455], the Emax under setting [6] is greater than 200%. Moreover, the EC50 runs as follows: under setting [1], 1 to 10 µM; under setting [2], 1 to 10 µM. The “Maximum % activity (with co-corrector)” value under setting [7] is “+++ (≥350)”.

By EC50 is commonly meant the midpoint of the concentration-response curve.

Source of the values: patent US20180099931A1 (AbbVie S.à.r.l., priority 2016, published 2018).
